*1 amine or outer side, *2 acyl side, *3 side chain or, on linkers, in order; H or OH if unused. Where a SMILES comes first, the peptide text is derived from it. Bridges are numbered along the chain shown (N, C = ends). [ ]: non-standard residue; d: D form. The star is where a group is joined. X21 = O=C([C@H](Cc1ccc(C(F)(F)F)cc1)N(CC1CCCC1)[*:1])[*:2]; hPhe(3-Cl-4-CF3) = N[C@@H](CCc1ccc(C(F)(F)F)c(Cl)c1)C(=O)O; X23 = CC(C)CN([C@@H](Cc1ccc(C(F)(F)F)cc1)C(=O)[*:2])[*:1]; X37 = O=C([C@H](Cc1ccc(C(F)(F)F)cc1)N(CC1CCC1)[*:1])[*:2]; X31 = O=C([C@H](Cc1ccc(C(F)(F)F)cc1)N(CC1CC1)[*:1])[*:2]; X17 = CCCCN([C@@H](Cc1ccc(C(F)(F)F)cc1)C(=O)[*:2])[*:1]; X41 = Cc1ccc(C[C@@H](C(=O)[*:2])N(CCC(F)(F)F)[*:1])cc1; X27 = Cc1ccc(C[C@@H](C(=O)[*:2])N(CC2CCCCC2)[*:1])cc1; X29 = Cc1ccc(C[C@@H](C(=O)[*:2])N(CC2CCCC2)[*:1])cc1; X43 = Cc1ccc(C[C@@H](C(=O)[*:2])N(CC2CCC2)[*:1])cc1; X26 = COCCCN([C@@H](Cc1ccc(C)cc1)C(=O)[*:2])[*:1]; X48 = C=CCCN([C@@H](Cc1ccc(C)cc1)C(=O)[*:2])[*:1]; X12 = COCCN([C@@H](Cc1ccc(C)cc1)C(=O)[*:2])[*:1]; X50 = C=CCN([C@@H](Cc1ccc(C)cc1)C(=O)[*:2])[*:1]; NMeGly(cPent) = CN[C@H](C(=O)O)C1CCCC1; NMeD = CN[C@@H](CC(=O)O)C(=O)O; NMeL = CN[C@@H](CC(C)C)C(=O)O; Morpholide = C1CN(*)CCO1; NMeA = CN[C@@H](C)C(=O)O; Ac5c = NC1(C(=O)O)CCCC1; Aze = O=C(O)[C@@H]1CCN1; Sar = CNCC(=O)O
Columns and labels:
[1] = target: GDP-bound NRAS wild-type protein (Homo sapiens, UniProt P01111); test: Binding to NRAS by surface plasmon resonance (SPR), Single Cycle Kinetics; details: KD ratio NRAS/KRAS, SPR
GDP-bound NRAS wild-type protein, sequence (P01111 whole entry): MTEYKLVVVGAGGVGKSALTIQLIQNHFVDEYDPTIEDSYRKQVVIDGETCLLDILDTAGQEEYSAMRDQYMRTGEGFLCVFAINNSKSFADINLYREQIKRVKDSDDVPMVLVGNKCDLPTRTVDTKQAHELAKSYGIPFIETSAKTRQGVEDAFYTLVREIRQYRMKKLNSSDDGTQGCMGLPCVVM

[2] = target: GDP-bound HRAS wild-type protein (Homo sapiens, UniProt P01112); test: Binding to HRAS by surface plasmon resonance (SPR), Single Cycle Kinetics; details: KD ratio HRAS/KRAS, SPR
GDP-bound HRAS wild-type protein, sequence (P01112 whole entry): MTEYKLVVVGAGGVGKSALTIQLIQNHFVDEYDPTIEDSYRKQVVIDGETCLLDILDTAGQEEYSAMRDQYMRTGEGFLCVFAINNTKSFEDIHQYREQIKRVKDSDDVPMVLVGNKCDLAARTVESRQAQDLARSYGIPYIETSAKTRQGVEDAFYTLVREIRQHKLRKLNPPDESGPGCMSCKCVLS

| SMILES | NRAS/KRAS (ratio of KD for GDP-bound NRAS wild-type to KD for KRAS) [1] | HRAS/KRAS (ratio of KD for GDP-bound HRAS wild-type to KD for KRAS) [2] |
| --- | --- | --- |
| CC[C@H](C)[C@@H]1NC(=O)[C@H](CC(C)C)N(C)C(=O)C[C@@H](C(=O)N2CCOCC2)N(C)C(=O)[C@H](C2CCCC2)N(C)C(=O)C2(CCCC2)NC(=O)[C@@H]2CCCN2C(=O)[C@H](CCc2ccc(C(F)(F)F)c(Cl)c2)NC(=O)CN(C)C(=O)[C@H](Cc2ccc(C)cc2)N(CC2CCC2)C(=O)CN(C)C(=O)CN(C)C1=O [PP0095] ([NMeL]I[Sar][Sar][X43][Sar][hPhe(3-Cl-4-CF3)]P[Ac5c][NMeGly(cPent)][NMeD]-Morpholide; lactam N-11) | C (A compound having a KD ratio of 0.1 or more and less than 3 is denoted as C) | C (A compound having a KD ratio of 0.1 or more and less than 3 is denoted as C) |
| CC[C@H](C)[C@@H]1NC(=O)[C@H](CC(C)C)N(C)C(=O)C[C@@H](C(=O)N2CCOCC2)N(C)C(=O)[C@H](C2CCCC2)N(C)C(=O)C2(CCCC2)NC(=O)[C@@H]2CCCN2C(=O)[C@H](CCc2ccc(C(F)(F)F)c(Cl)c2)NC(=O)CN(C)C(=O)[C@H](Cc2ccc(C)cc2)N(CC2CCCC2)C(=O)CN(C)C(=O)CN(C)C1=O [PP0096] ([NMeL]I[Sar][Sar][X29][Sar][hPhe(3-Cl-4-CF3)]P[Ac5c][NMeGly(cPent)][NMeD]-Morpholide; lactam N-11) | C (A compound having a KD ratio of 0.1 or more and less than 3 is denoted as C) | C (A compound having a KD ratio of 0.1 or more and less than 3 is denoted as C) |
| CC[C@H](C)[C@@H]1NC(=O)[C@H](CC(C)C)N(C)C(=O)C[C@@H](C(=O)N2CCOCC2)N(C)C(=O)[C@H](C2CCCC2)N(C)C(=O)C2(CCCC2)NC(=O)[C@@H]2CCCN2C(=O)[C@H](CCc2ccc(C(F)(F)F)c(Cl)c2)NC(=O)CN(C)C(=O)[C@H](Cc2ccc(C)cc2)N(CC2CCCCC2)C(=O)CN(C)C(=O)CN(C)C1=O [PP0097] ([NMeL]I[Sar][Sar][X27][Sar][hPhe(3-Cl-4-CF3)]P[Ac5c][NMeGly(cPent)][NMeD]-Morpholide; lactam N-11) | C (A compound having a KD ratio of 0.1 or more and less than 3 is denoted as C) | C (A compound having a KD ratio of 0.1 or more and less than 3 is denoted as C) |
| C=CCN1C(=O)CN(C)C(=O)CN(C)C(=O)[C@H]([C@@H](C)CC)NC(=O)[C@H](CC(C)C)N(C)C(=O)C[C@@H](C(=O)N2CCOCC2)N(C)C(=O)[C@H](C2CCCC2)N(C)C(=O)C2(CCCC2)NC(=O)[C@@H]2CCCN2C(=O)[C@H](CCc2ccc(C(F)(F)F)c(Cl)c2)NC(=O)CN(C)C(=O)[C@@H]1Cc1ccc(C)cc1 [PP0100] ([NMeL]I[Sar][Sar][X50][Sar][hPhe(3-Cl-4-CF3)]P[Ac5c][NMeGly(cPent)][NMeD]-Morpholide; lactam N-11) | B (a compound having 3 or more and less than 10 is denoted as B) | C (A compound having a KD ratio of 0.1 or more and less than 3 is denoted as C) |
| C=CCCN1C(=O)CN(C)C(=O)CN(C)C(=O)[C@H]([C@@H](C)CC)NC(=O)[C@H](CC(C)C)N(C)C(=O)C[C@@H](C(=O)N2CCOCC2)N(C)C(=O)[C@H](C2CCCC2)N(C)C(=O)C2(CCCC2)NC(=O)[C@@H]2CCCN2C(=O)[C@H](CCc2ccc(C(F)(F)F)c(Cl)c2)NC(=O)CN(C)C(=O)[C@@H]1Cc1ccc(C)cc1 [PP0101] ([NMeL]I[Sar][Sar][X48][Sar][hPhe(3-Cl-4-CF3)]P[Ac5c][NMeGly(cPent)][NMeD]-Morpholide; lactam N-11) | B (a compound having 3 or more and less than 10 is denoted as B) | C (A compound having a KD ratio of 0.1 or more and less than 3 is denoted as C) |
| CC[C@H](C)[C@@H]1NC(=O)[C@H](CC(C)C)N(C)C(=O)C[C@@H](C(=O)N2CCOCC2)N(C)C(=O)[C@H](C2CCCC2)N(C)C(=O)C2(CCCC2)NC(=O)[C@@H]2CCCN2C(=O)[C@H](CCc2ccc(C(F)(F)F)c(Cl)c2)NC(=O)CN(C)C(=O)[C@H](Cc2ccc(C)cc2)N(CCC(F)(F)F)C(=O)CN(C)C(=O)CN(C)C1=O [PP0103] ([NMeL]I[Sar][Sar][X41][Sar][hPhe(3-Cl-4-CF3)]P[Ac5c][NMeGly(cPent)][NMeD]-Morpholide; lactam N-11) | B (a compound having 3 or more and less than 10 is denoted as B) | C (A compound having a KD ratio of 0.1 or more and less than 3 is denoted as C) |
| CC[C@H](C)[C@@H]1NC(=O)[C@H](CC(C)C)N(C)C(=O)C[C@@H](C(=O)N2CCOCC2)N(C)C(=O)[C@H](C2CCCC2)N(C)C(=O)C2(CCCC2)NC(=O)[C@@H]2CCCN2C(=O)[C@H](CCc2ccc(C(F)(F)F)c(Cl)c2)NC(=O)CN(C)C(=O)[C@H](Cc2ccc(C)cc2)N(CCOC)C(=O)CN(C)C(=O)CN(C)C1=O [PP0104] ([NMeL]I[Sar][Sar][X12][Sar][hPhe(3-Cl-4-CF3)]P[Ac5c][NMeGly(cPent)][NMeD]-Morpholide; lactam N-11) | B (a compound having 3 or more and less than 10 is denoted as B) | C (A compound having a KD ratio of 0.1 or more and less than 3 is denoted as C) |
| CC[C@H](C)[C@@H]1NC(=O)[C@H](CC(C)C)N(C)C(=O)C[C@@H](C(=O)N2CCOCC2)N(C)C(=O)[C@H](C2CCCC2)N(C)C(=O)C2(CCCC2)NC(=O)[C@@H]2CCCN2C(=O)[C@H](CCc2ccc(C(F)(F)F)c(Cl)c2)NC(=O)CN(C)C(=O)[C@H](Cc2ccc(C)cc2)N(CCCOC)C(=O)CN(C)C(=O)CN(C)C1=O [PP0105] ([NMeL]I[Sar][Sar][X26][Sar][hPhe(3-Cl-4-CF3)]P[Ac5c][NMeGly(cPent)][NMeD]-Morpholide; lactam N-11) | B (a compound having 3 or more and less than 10 is denoted as B) | C (A compound having a KD ratio of 0.1 or more and less than 3 is denoted as C) |
| CCCCN1C(=O)[C@@H]2CCN2C(=O)[C@H](C)N(C)C(=O)[C@H]([C@@H](C)CC)NC(=O)[C@H](CC(C)C)N(C)C(=O)C[C@@H](C(=O)N2CCOCC2)N(C)C(=O)[C@H](C2CCCC2)N(C)C(=O)C2(CCCC2)NC(=O)[C@@H]2CCCN2C(=O)[C@H](CCc2ccc(C(F)(F)F)c(Cl)c2)NC(=O)CN(C)C(=O)[C@@H]1Cc1ccc(C(F)(F)F)cc1 [PP0106] ([NMeL]I[NMeA][Aze][X17][Sar][hPhe(3-Cl-4-CF3)]P[Ac5c][NMeGly(cPent)][NMeD]-Morpholide; lactam N-11) | C (A compound having a KD ratio of 0.1 or more and less than 3 is denoted as C) | B (a compound having 3 or more and less than 10 is denoted as B) |
| CC[C@H](C)[C@@H]1NC(=O)[C@H](CC(C)C)N(C)C(=O)C[C@@H](C(=O)N2CCOCC2)N(C)C(=O)[C@H](C2CCCC2)N(C)C(=O)C2(CCCC2)NC(=O)[C@@H]2CCCN2C(=O)[C@H](CCc2ccc(C(F)(F)F)c(Cl)c2)NC(=O)CN(C)C(=O)[C@H](Cc2ccc(C(F)(F)F)cc2)N(CC(C)C)C(=O)[C@@H]2CCN2C(=O)[C@H](C)N(C)C1=O [PP0107] ([NMeL]I[NMeA][Aze][X23][Sar][hPhe(3-Cl-4-CF3)]P[Ac5c][NMeGly(cPent)][NMeD]-Morpholide; lactam N-11) | C (A compound having a KD ratio of 0.1 or more and less than 3 is denoted as C) | C (A compound having a KD ratio of 0.1 or more and less than 3 is denoted as C) |
| CC[C@H](C)[C@@H]1NC(=O)[C@H](CC(C)C)N(C)C(=O)C[C@@H](C(=O)N2CCOCC2)N(C)C(=O)[C@H](C2CCCC2)N(C)C(=O)C2(CCCC2)NC(=O)[C@@H]2CCCN2C(=O)[C@H](CCc2ccc(C(F)(F)F)c(Cl)c2)NC(=O)CN(C)C(=O)[C@H](Cc2ccc(C(F)(F)F)cc2)N(CC2CC2)C(=O)[C@@H]2CCN2C(=O)[C@H](C)N(C)C1=O [PP0108] ([NMeL]I[NMeA][Aze][X31][Sar][hPhe(3-Cl-4-CF3)]P[Ac5c][NMeGly(cPent)][NMeD]-Morpholide; lactam N-11) | C (A compound having a KD ratio of 0.1 or more and less than 3 is denoted as C) | C (A compound having a KD ratio of 0.1 or more and less than 3 is denoted as C) |
| CC[C@H](C)[C@@H]1NC(=O)[C@H](CC(C)C)N(C)C(=O)C[C@@H](C(=O)N2CCOCC2)N(C)C(=O)[C@H](C2CCCC2)N(C)C(=O)C2(CCCC2)NC(=O)[C@@H]2CCCN2C(=O)[C@H](CCc2ccc(C(F)(F)F)c(Cl)c2)NC(=O)CN(C)C(=O)[C@H](Cc2ccc(C(F)(F)F)cc2)N(CC2CCC2)C(=O)[C@@H]2CCN2C(=O)[C@H](C)N(C)C1=O [PP0109] ([NMeL]I[NMeA][Aze][X37][Sar][hPhe(3-Cl-4-CF3)]P[Ac5c][NMeGly(cPent)][NMeD]-Morpholide; lactam N-11) | C (A compound having a KD ratio of 0.1 or more and less than 3 is denoted as C) | B (a compound having 3 or more and less than 10 is denoted as B) |
| CC[C@H](C)[C@@H]1NC(=O)[C@H](CC(C)C)N(C)C(=O)C[C@@H](C(=O)N2CCOCC2)N(C)C(=O)[C@H](C2CCCC2)N(C)C(=O)C2(CCCC2)NC(=O)[C@@H]2CCCN2C(=O)[C@H](CCc2ccc(C(F)(F)F)c(Cl)c2)NC(=O)CN(C)C(=O)[C@H](Cc2ccc(C(F)(F)F)cc2)N(CC2CCCC2)C(=O)[C@@H]2CCN2C(=O)[C@H](C)N(C)C1=O [PP0110] ([NMeL]I[NMeA][Aze][X21][Sar][hPhe(3-Cl-4-CF3)]P[Ac5c][NMeGly(cPent)][NMeD]-Morpholide; lactam N-11) | C (A compound having a KD ratio of 0.1 or more and less than 3 is denoted as C) | B (a compound having 3 or more and less than 10 is denoted as B) |

From US20250230193A1, “CYCLIC COMPOUND HAVING SELECTIVE KRAS INHIBITORY EFFECT ON HRAS AND NRAS” (CHUGAI SEIYAKU KABUSHIKI KAISHA, priority 2022, published 2025)
